Molecular target: T1, human HSL (Homo sapiens, UniProt Q05469)
T1 construct: overlapping PCR to generate a full length human HSL ORF with a 3′-His6 tag; His6 (C); made in house; host or cells: High 5 insect cells (baculovirus, pFast-BAC)
T1 sequence (Q05469 1-1076): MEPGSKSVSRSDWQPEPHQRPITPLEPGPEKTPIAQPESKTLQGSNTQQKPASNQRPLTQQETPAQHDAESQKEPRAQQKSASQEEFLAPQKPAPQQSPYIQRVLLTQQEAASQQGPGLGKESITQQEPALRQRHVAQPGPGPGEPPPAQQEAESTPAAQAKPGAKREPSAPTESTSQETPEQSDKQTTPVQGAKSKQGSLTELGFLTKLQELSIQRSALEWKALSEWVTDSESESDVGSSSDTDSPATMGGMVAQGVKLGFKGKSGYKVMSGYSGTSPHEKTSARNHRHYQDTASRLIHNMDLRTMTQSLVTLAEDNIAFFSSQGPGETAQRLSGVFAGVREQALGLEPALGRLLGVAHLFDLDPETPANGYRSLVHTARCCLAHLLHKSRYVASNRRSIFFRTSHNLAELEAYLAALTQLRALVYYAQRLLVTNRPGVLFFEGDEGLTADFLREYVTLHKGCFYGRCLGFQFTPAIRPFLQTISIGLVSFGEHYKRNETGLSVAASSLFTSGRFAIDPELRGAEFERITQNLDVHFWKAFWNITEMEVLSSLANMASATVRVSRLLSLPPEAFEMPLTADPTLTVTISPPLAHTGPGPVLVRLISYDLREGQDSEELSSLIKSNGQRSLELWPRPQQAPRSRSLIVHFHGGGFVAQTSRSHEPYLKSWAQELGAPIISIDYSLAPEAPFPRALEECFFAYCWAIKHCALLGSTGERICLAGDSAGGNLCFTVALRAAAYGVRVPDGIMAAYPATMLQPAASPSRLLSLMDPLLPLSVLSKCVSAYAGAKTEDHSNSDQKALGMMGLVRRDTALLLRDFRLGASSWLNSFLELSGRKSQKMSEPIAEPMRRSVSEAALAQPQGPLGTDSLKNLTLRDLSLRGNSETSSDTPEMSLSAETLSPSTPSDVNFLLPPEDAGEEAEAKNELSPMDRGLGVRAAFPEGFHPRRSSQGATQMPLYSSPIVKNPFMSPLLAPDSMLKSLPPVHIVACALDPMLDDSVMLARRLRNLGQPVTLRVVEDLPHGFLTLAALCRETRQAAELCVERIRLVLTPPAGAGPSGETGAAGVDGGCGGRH
Test: Human Hormone-Sensitive Lipase (HSL) enzyme inhibition assay (colorimetric, DMPT substrate)
Assay type: biochemical
Conditions: human full length HSL-His6, 2,3-dimercapto-1-propanol tributyrate substrate, 37° C. 20 minutes, absorbance at 405 nm; read-out: HSL hum IC50
Method: 1) Cloning: cDNA was prepared from commercial human brain polyA+ RNA and used as a template in overlapping PCR to generate a full length human HSL ORF with a 3′-His6 tag. This full length insert was cloned into the pFast-BAC vector and the DNA-sequence of several single clones was verified. DNA from a correct full length clone with the 3′His6 tag was used to transform the E. coli strain DH10BAC. Resulting bacmid DNA was used to generate a titered baculovirus stock for protein generation.
Cells were thawed. […] was done at 3×30 sec., Lubrol PX was added to 0.2% final concentration followed by stirring for 15 min. at 4° C. and centrifugation at 25 k×g, 60 min., 4° C. […] Supernatant was removed, the resin washed in the centrifuge vessel using 5 volumes of Base Buffer containing 0.2% Lubrol PX. Centrifugation was done again, then the supernatant discarded. The resin was poured onto a 0.8 μm membrane in a disposable filter unit (Nalge 450-0080), and washed with 5 volumes of Base Buffer containing 0.2% Lubrol PX. It was then washed with 30 volumes of Base Buffer containing 60 mM imidazole pH 7.5 at 4° C. The protein was eluated with 5 volumes of 25 mM Tris-Cl, 300 mM NaCl, 200 mM imidazole, 10 mM 2-mercaptoethanol, pH 7.5 at 4° C. by tumbling resin with buffer end-over-end, 30 min., 4° C. The resin was captured on a 0.2 μm membrane disposable filter unit (Millipore SCGP U02 RE) and the eluate collected in the reservoir. The eluate was concentrated using a 30 k MWCO centrifugal filter device (Sartorius Vivascience Vivacell 100, VC1022), to 20 ml. It was then dialyzed overnight at 4° C., two times against 2 L of 10% glycerol, 25 mM Tris-Cl, 300 mM NaCl, 0.2 mM EDTA, 0.2 mM DTT, pH 7.5 at 4° C. The protein was filtered using a 0.22 μm disposable filter unit (Millipore SCGP00525). The protein concentration was calculated from absorbance at 280 nm, using 280=0.67 cm-1 mg-1. […] The protein was stored at −80° C.
Human Hormone-Sensitive Lipase (HSL) Enzyme Inhibition Assay:
HSL enzyme activity was measured by a colorimetric assay using 2,3-dimercapto-1-propanol tributyrate (Aldrich, St. Louis, Mo.) as a substrate. Typically, 1.5 mM 2,3-dimercapto-1-propanol tributyrate (DMPT) in 100 mM MOPS, pH 7.2, 0.2 mg/ml fatty acid-free BSA was prepared by sonication at 4° C. to homogenous suspension. Test compounds (2 mM stock in DMSO) were diluted 3 fold in series in DMSO. Compound solutions were diluted 24 fold in 1.5 mM DMPT containing solution and 18 ul per well was added to 384-well microplates (Corning Costar). Twelve microliters per well of human HSL (15 ug/ml) was added and the reaction mixture was incubated at 37° C. for 20 minutes. Six microliters of 12 mM dithio-bis-(2-nitrobenzoic acid) (DTNB) in DMSO plus 1.2% SDS and 0.6% Triton X-100 were added and the mixture was incubated at room temperature for 15 minutes. Product production was monitored by reading absorbance at 405 nm on an Envision Reader (PerkinElmer Life and Analytical Sciences, Shelton, Conn.).

Question: How did the IC50 turn out when O=C1N(c2ccc(C3CC3)cc2)CCC12CCN(CCCc1ccccc1)CC2 [Example 1, 2-(4-Cyclopropyl-phenyl)-8-(3-phenyl-propyl)-2,8-diaza-spiro[4.5]decan-1-one] was run?
Answer: 240 nM

Question: Which IC50 does the source give for O=C1N(c2ccc(C3CC3)cc2)CCC12CCN(CCc1ccccc1)CC2 [Example 2, 2-(4-Cyclopropyl-phenyl)-8-phenethyl-2,8-diaza-spiro[4.5]decan-1-one] here?
Answer: 70 nM

Question: O=C1N(c2ccc(C3CC3)cc2)CCC12CCN(Cc1ccc(C(F)(F)F)cc1)CC2 [Example 3, 2-(4-Cyclopropyl-phenyl)-8-(4-trifluoromethyl-benzyl)-2,8-diaza-spiro[4.5]decan-1-one] was tested. Which IC50 did it give?
Answer: 360 nM

Question: CC(c1ccccc1)N1CCC2(CCN(c3ccc(C4CC4)cc3)C2=O)CC1 (stereo not drawn) [Example 4, 2-(4-Cyclopropyl-phenyl)-8-(1-phenyl-ethyl)-2,8-diaza-spiro[4.5]decan-1-one] was tested. Which IC50 did it give?
Answer: 30 nM

Question: With CC(c1cccc(C(F)(F)F)c1)N1CCC2(CCN(c3ccc(C4CC4)cc3)C2=O)CC1 (stereo not drawn) [Example 5, 2-(4-Cyclopropyl-phenyl)-8-[1-(3-trifluoromethyl-phenyl)-ethyl]-2,8-diaza-spiro[4.5]decan-1-one] as the molecule, how does the IC50 read?
Answer: 170 nM

Question: With CC(c1ccccc1)N1CCC2(CCN(c3ccc(C4CC4)cc3Cl)C2=O)CC1 (stereo not drawn) [Example 6, 2-(2-Chloro-4-cyclopropyl-phenyl)-8-(1-phenyl-ethyl)-2,8-diaza-spiro[4.5]decan-1-one] as the molecule, how does the IC50 read?
Answer: 980 nM

Question: For CCC(c1ccccc1)N1CCC2(CCN(c3ccc(C4CC4)cc3)C2=O)CC1 (stereo not drawn) [Example 7, 2-(4-Cyclopropyl-phenyl)-8-(1-phenyl-propyl)-2,8-diaza-spiro[4.5]decan-1-one], which IC50 is on record?
Answer: 30 nM

Question: Which IC50 does the source give for O=C1N(c2ccc(OC(F)(F)F)cc2)CCC12CCN(Cc1ccccc1)CC2 [Example 8, 8-Benzyl-2-(4-trifluoromethoxy-phenyl)-2,8-diaza-spiro[4.5]decan-1-one] here?
Answer: 40 nM

Question: For CCNC(=O)CN1CCC2(CC1)CCN(c1ccc(C3CC3)cc1)C2=O [Example 9, 2-[2-(4-Cyclopropyl-phenyl)-1-oxo-2,8-diaza-spiro[4.5]dec-8-yl]-N-ethyl-acetamide], which IC50 is on record?
Answer: 610 nM

Question: How did the IC50 turn out when CCN(CC)C(=O)CN1CCC2(CC1)CCN(c1ccc(C3CC3)cc1)C2=O [Example 10, 2-[2-(4-Cyclopropyl-phenyl)-1-oxo-2,8-diaza-spiro[4.5]dec-8-yl]-N,N-diethyl-acetamide] was run?
Answer: 380 nM

Question: For CCCCNC(=O)CN1CCC2(CC1)CCN(c1ccc(C3CC3)cc1)C2=O [Example 11, N-Butyl-2-[2-(4-cyclopropyl-phenyl)-1-oxo-2,8-diaza-spiro[4.5]dec-8-yl]-acetamide], which IC50 is on record?
Answer: 90 nM

Question: O=C(CN1CCC2(CC1)CCN(c1ccc(C3CC3)cc1)C2=O)NCc1ccc(C(F)(F)F)cc1 [Example 12, 2-[2-(4-Cyclopropyl-phenyl)-1-oxo-2,8-diaza-spiro[4.5]dec-8-yl]-N-(4-trifluoromethyl-benzyl)-acetamide] was tested. Which IC50 did it give?
Answer: 30 nM

Question: For O=C(CN1CCC2(CC1)CCN(c1ccc(C3CC3)cc1)C2=O)Nc1ccc(F)cc1 [Example 13, 2-[2-(4-Cyclopropyl-phenyl)-1-oxo-2,8-diaza-spiro[4.5]dec-8-yl]-N-(4-fluoro-phenyl)-acetamide], which IC50 is on record?
Answer: 80 nM

Question: For O=C(CN1CCC2(CC1)CCN(c1ccc(C3CC3)cc1)C2=O)N1CCCC1 [Example 14, 2-(4-Cyclopropyl-phenyl)-8-(2-oxo-2-pyrrolidin-1-yl-ethyl)-2,8-diaza-spiro[4.5]decan-1-one], which IC50 is on record?
Answer: 220 nM

Question: How did the IC50 turn out when CN(Cc1ccccc1)C(=O)CN1CCC2(CC1)CCN(c1ccc(C3CC3)cc1)C2=O [Example 15, N-Benzyl-2-[2-(4-cyclopropyl-phenyl)-1-oxo-2,8-diaza-spiro[4.5]dec-8-yl]-N-methyl-acetamide] was run?
Answer: 80 nM

Question: CN(C(=O)CN1CCC2(CC1)CCN(c1ccc(C3CC3)cc1)C2=O)C1CCCCC1 [Example 16, N-Cyclohexyl-2-[2-(4-cyclopropyl-phenyl)-1-oxo-2,8-diaza-spiro[4.5]dec-8-yl]-N-methyl-acetamide] was tested. Which IC50 did it give?
Answer: 60 nM

Question: Which IC50 does the source give for COCCCNC(=O)CN1CCC2(CC1)CCN(c1ccc(C3CC3)cc1)C2=O [Example 17, 2-[2-(4-Cyclopropyl-phenyl)-1-oxo-2,8-diaza-spiro[4.5]dec-8-yl]-N-(3-methoxy-propyl)-acetamide] here?
Answer: 710 nM

Question: Which IC50 does the source give for CCCCNC(=O)CCN1CCC2(CC1)CCN(c1ccc(C3CC3)cc1)C2=O [Example 18, N-Butyl-3-[2-(4-cyclopropyl-phenyl)-1-oxo-2,8-diaza-spiro[4.5]dec-8-yl]-propionamide] here?
Answer: 460 nM

Question: O=C(CCN1CCC2(CC1)CCN(c1ccc(C3CC3)cc1)C2=O)NCc1ccc(C(F)(F)F)cc1 [Example 19, 3-[2-(4-Cyclopropyl-phenyl)-1-oxo-2,8-diaza-spiro[4.5]dec-8-yl]-N-(4-trifluoromethyl-benzyl)-propionamide] was tested. Which IC50 did it give?
Answer: 30 nM

Question: Which IC50 does the source give for O=C(CCN1CCC2(CC1)CCN(c1ccc(C3CC3)cc1)C2=O)Nc1ccc(F)cc1 [Example 20, 3-[2-(4-Cyclopropyl-phenyl)-1-oxo-2,8-diaza-spiro[4.5]dec-8-yl]-N-(4-fluoro-phenyl)-propionamide] here?
Answer: 60 nM

Question: For CN(Cc1ccccc1)C(=O)CCN1CCC2(CC1)CCN(c1ccc(C3CC3)cc1)C2=O [Example 21, N-Benzyl-3-[2-(4-cyclopropyl-phenyl)-1-oxo-2,8-diaza-spiro[4.5]dec-8-yl]-N-methyl-propionamide], which IC50 is on record?
Answer: 90 nM

Question: CN(C(=O)CCN1CCC2(CC1)CCN(c1ccc(C3CC3)cc1)C2=O)C1CCCCC1 [Example 22, N-Cyclohexyl-3-[2-(4-cyclopropyl-phenyl)-1-oxo-2,8-diaza-spiro[4.5]dec-8-yl]-N-methyl-propionamide] was tested. Which IC50 did it give?
Answer: 320 nM

Question: With O=C1N(c2ccc(C3CC3)cc2)CCC12CCN(CC(O)c1ccccc1)CC2 (stereo not drawn) [Example 23, 2-(4-Cyclopropyl-phenyl)-8-(2-hydroxy-2-phenyl-ethyl)-2,8-diaza-spiro[4.5]decan-1-one] as the molecule, how does the IC50 read?
Answer: 70 nM

Question: For O=C1N(c2ccc(C3CC3)cc2)CCC12CCN(CC(O)c1ccc(Cl)cc1)CC2 (stereo not drawn) [Example 24, 8-[2-(4-Chloro-phenyl)-2-hydroxy-ethyl]-2-(4-cyclopropyl-phenyl)-2,8-diaza-spiro[4.5]decan-1-one], which IC50 is on record?
Answer: 80 nM

Reference: patent US8389539B2, “Azacyclic derivatives” (Hoffman-La Roche Inc., priority 2009, dated 2013)
